Source: ChEMBL document CHEMBL1201862, “PubChem BioAssay data set” (2004)
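A five-concentration, 48-hour dose response in 96-well plates underlies each endpoint, interpolated linearly between surrounding concentrations. At the GI50, growth is halved.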 Active and inactive are the calls of the source. Cut-off read from the data, not from the text of the source: active = GI50 up to about 1.1 µM and inactive = higher.

Experiments:
Test in all cases: inhibition of tumour cell growth, NCI panel, 48 h
DMS-114 = system: DMS-114
U-251 = system: U-251
TK-10 = system: TK-10
SNB-19 = system: SNB-19
SR = system: SR
SF-268 = system: SF-268
HCT-116 = system: HCT-116
CAKI-1 = system: CAKI-1
K562 = system: K562
UACC-62 = system: UACC-62
SNB-75 = system: SNB-75
LOX IMVI = system: LOX IMVI
786-0 = system: 786-0
RPMI-8226 = system: RPMI-8226
SF-295 = system: SF-295
NCI-H23 = system: NCI-H23
DU-145 = system: DU-145
MDA-N = system: MDA-N
PC-3 = system: PC-3
BT-549 = system: BT-549

Row | Structure (SMILES) | GI50 (DMS-114) | GI50 (U-251) | GI50 (TK-10) | GI50 (SNB-19) | GI50 (SR) | GI50 (SF-268) | GI50 (HCT-116) | GI50 (CAKI-1) | GI50 (K562) | GI50 (UACC-62) | GI50 (SNB-75) | GI50 (LOX IMVI) | GI50 (786-0) | GI50 (RPMI-8226) | GI50 (SF-295) | GI50 (NCI-H23) | GI50 (DU-145) | GI50 (MDA-N) | GI50 (PC-3) | GI50 (BT-549)
1 | O=[N+]([O-])c1cccnc1S(=O)(=O)c1ccccc1 | 3.18 µM (inactive) | 8.95 µM (inactive) | 10 µM (inactive) | 19.8 µM (inactive) | 3.99 µM (inactive) | 10.5 µM (inactive) | 6.93 µM (inactive) | 2.9 µM (inactive) | 3.45 µM (inactive) | 11.6 µM (inactive) | 19.9 µM (inactive) | 4.46 µM (inactive) | 2.48 µM (inactive) | 8.71 µM (inactive) | 18.5 µM (inactive) | 15.8 µM (inactive) | – | – | – | –
2 | CN(O)C(=O)Cc1ccccc1 | > 100 µM (inactive) | > 100 µM (inactive) | > 100 µM (inactive) | > 100 µM (inactive) | > 100 µM (inactive) | > 100 µM (inactive) | > 100 µM (inactive) | > 100 µM (inactive) | > 100 µM (inactive) | > 100 µM (inactive) | 67 µM (inactive) | > 100 µM (inactive) | > 100 µM (inactive) | > 100 µM (inactive) | > 100 µM (inactive) | > 100 µM (inactive) | – | – | – | –
3 | O=C(CC1=Nc2nnc(CCCCCCCc3nnc4n3C(=O)C(CC(=O)c3ccccc3)=N4)n2C1=O)c1ccccc1 | > 100 µM (inactive) | > 100 µM (inactive) | > 100 µM (inactive) | > 100 µM (inactive) | > 100 µM (inactive) | > 100 µM (inactive) | > 100 µM (inactive) | > 100 µM (inactive) | > 100 µM (inactive) | > 100 µM (inactive) | > 100 µM (inactive) | > 100 µM (inactive) | > 100 µM (inactive) | > 100 µM (inactive) | > 100 µM (inactive) | > 100 µM (inactive) | – | – | – | –
4 | COCOC1CCCC[C@@]1(OCCOCCO[C@@]1(c2ccccc2)CCCC[C@H]1OCOC)c1ccccc1 (stereo partly drawn) | > 100 µM (inactive) | > 100 µM (inactive) | 70.6 µM (inactive) | > 100 µM (inactive) | > 100 µM (inactive) | > 100 µM (inactive) | > 100 µM (inactive) | 41.1 µM (inactive) | > 100 µM (inactive) | > 100 µM (inactive) | 24.4 µM (inactive) | > 100 µM (inactive) | 46.6 µM (inactive) | > 100 µM (inactive) | 32.4 µM (inactive) | > 100 µM (inactive) | – | – | – | –
5 | CC(C)/C=C1\CCC(CN(C)C)C1=O (stereo not drawn) | 3.19 µM (inactive) | 18.3 µM (inactive) | 2.09 µM (inactive) | 9.66 µM (inactive) | 0.951 µM (active) | 8.85 µM (inactive) | 0.871 µM (active) | 1.32 µM (inactive) | 0.893 µM (active) | 16.8 µM (inactive) | 3.48 µM (inactive) | 4.99 µM (inactive) | 0.632 µM (active) | 0.13 µM (active) | 16.6 µM (inactive) | 5.56 µM (inactive) | 1.81 µM (inactive) | 2.92 µM (inactive) | 4.66 µM (inactive) | 3.17 µM (inactive)
6 | C[n+]1c2ccccc2cc2c(CNC(CCCNC(=N)N)C(=O)O)cccc21 (stereo not drawn) | 0.232 µM (active) | 1.61 µM (inactive) | 0.67 µM (active) | 2.37 µM (inactive) | 0.184 µM (active) | 0.244 µM (active) | 0.301 µM (active) | 0.518 µM (active) | 0.22 µM (active) | 0.643 µM (active) | 5.62 µM (inactive) | 0.493 µM (active) | 0.75 µM (active) | 0.0682 µM (active) | 3.17 µM (inactive) | 3.14 µM (inactive) | – | – | – | –
7 | COC(=O)N/N=C(\C)C(CN1CCCCC1)C(C1=C(O)c2ccccc2OC1)c1ccccc1 (stereo not drawn) | > 100 µM (inactive) | 43.1 µM (inactive) | > 100 µM (inactive) | > 100 µM (inactive) | > 100 µM (inactive) | > 100 µM (inactive) | > 100 µM (inactive) | > 100 µM (inactive) | > 100 µM (inactive) | 86.3 µM (inactive) | 95.7 µM (inactive) | > 100 µM (inactive) | > 100 µM (inactive) | > 100 µM (inactive) | > 100 µM (inactive) | > 100 µM (inactive) | – | – | – | –
8 | O=C(Nc1ccc2[nH]c3c(-c4ccccc4)nccc3c2c1)c1ccccc1[N+](=O)[O-] | 3.74 µM (inactive) | 2.96 µM (inactive) | 4.18 µM (inactive) | 5.58 µM (inactive) | 1.85 µM (inactive) | 3.52 µM (inactive) | 5.71 µM (inactive) | 5.74 µM (inactive) | 4.06 µM (inactive) | – | 2.47 µM (inactive) | 2.92 µM (inactive) | – | 1.61 µM (inactive) | 1.64 µM (inactive) | 4.37 µM (inactive) | – | – | – | –
9 | C/C(=C\CNc1ncnc2c1ncn2C1CCCCO1)COP(=O)(O)O (stereo not drawn) | > 100 µM (inactive) | > 100 µM (inactive) | > 100 µM (inactive) | > 100 µM (inactive) | > 100 µM (inactive) | > 100 µM (inactive) | > 100 µM (inactive) | > 100 µM (inactive) | > 100 µM (inactive) | > 100 µM (inactive) | > 100 µM (inactive) | > 100 µM (inactive) | > 100 µM (inactive) | > 100 µM (inactive) | > 100 µM (inactive) | > 100 µM (inactive) | – | – | – | –
10 | CC(=O)OC1CCn2nnc(CO[Si](C)(C)C(C)(C)C)c21 (stereo not drawn) | > 100 µM (inactive) | > 100 µM (inactive) | > 100 µM (inactive) | > 100 µM (inactive) | > 100 µM (inactive) | – | > 100 µM (inactive) | > 100 µM (inactive) | > 100 µM (inactive) | – | 21 µM (inactive) | – | > 100 µM (inactive) | > 100 µM (inactive) | > 100 µM (inactive) | > 100 µM (inactive) | – | – | – | –
11 | O=c1[nH]c(=O)n(C2CC(O)C(CO)O2)cc1C#Cc1ccc(F)cc1 (stereo not drawn) | > 100 µM (inactive) | > 100 µM (inactive) | – | > 100 µM (inactive) | > 100 µM (inactive) | > 100 µM (inactive) | – | > 100 µM (inactive) | > 100 µM (inactive) | > 100 µM (inactive) | > 100 µM (inactive) | > 100 µM (inactive) | > 100 µM (inactive) | > 100 µM (inactive) | > 100 µM (inactive) | > 100 µM (inactive) | – | – | – | –
12 | O=[N+]([O-])C=C(c1ccc(Cl)cc1)c1ccc(Cl)cc1 | 15.2 µM (inactive) | 16.1 µM (inactive) | 19.4 µM (inactive) | 18.5 µM (inactive) | 19.5 µM (inactive) | – | 17.7 µM (inactive) | 16.6 µM (inactive) | 21.3 µM (inactive) | – | 21.7 µM (inactive) | 12.7 µM (inactive) | 16.5 µM (inactive) | 11.2 µM (inactive) | 18.5 µM (inactive) | 9.68 µM (inactive) | – | – | – | –
13 | C=C=C(CC)C(C(=O)OC)N(CC)CC (stereo not drawn) | > 100 µM (inactive) | > 100 µM (inactive) | > 100 µM (inactive) | > 100 µM (inactive) | > 100 µM (inactive) | > 100 µM (inactive) | > 100 µM (inactive) | > 100 µM (inactive) | > 100 µM (inactive) | > 100 µM (inactive) | > 100 µM (inactive) | > 100 µM (inactive) | > 100 µM (inactive) | > 100 µM (inactive) | > 100 µM (inactive) | > 100 µM (inactive) | – | – | – | –
